Measured values published in patent publication US9796671B2, “Aurora kinase inhibitors” (REGENTS OF THE UNIVERSITY OF MINNESOTA, priority 2012, dated 2017).

Columns and labels:
[1] = system: A549 lung cancer cells xenograft; test: Xenograft mouse model, oral gavage (Example 7); assay type: in vivo; settings: 40 mg/kg oral gavage 5 times a week
Description: Athymic nude mice (6 week old nu/nu female mice, Harlan Laboratory, Minneapolis, Minn.) were inoculated in the right flank with A549 lung cancer cells (3*10^6 cells/mouse). Mice were maintained under “specific pathogen-free” conditions based on the guidelines established by the University of Minnesota Institutional Animal Care and Use Committee. Tumors were allowed to grow to an average of ˜53.5±34.5 mm^3 and then mice were divided into 2 equal groups with a similar average tumor volume (group 1; n=15), vehicle only; (group 2, […]), compound 1 at 40 mg/kg. Treatment with vehicle or compound 1 was initiated on Day 13 after inoculation of cells and continued to Day 80 (˜9 wks) and was administered by oral gavage 5 times a week. Tumor volume was measured once a week and body weight was measured once a week. Compound 1 was prepared in 2.5% DMSO/5% PEG 400/5% Tween-80 in 1×PBS and sonicated for ˜20 minutes. […] Data are shown as means±S.E (FIG. 1).

IGF-1R = molecular target: T1, IGF-1R (Homo sapiens, UniProt P08069); test: Kinase profile assay (Millipore); assay type: biochemical; settings: read-out: kinase activity compared with the control
T1 construct: purchased Millipore
Method: (§1) A kinase profile assay was performed by Millipore, to examine other potential targets of Compound 1. Only Akt2 activity was suppressed more than 50% after 5 μM compound 1 treatment, compared with the control (Table 2). In addition, the kinase activity of Aurora A was decreased less than 25% at 5 μM Compound 1.

MKK4 = molecular target: T2, MKK4 (Mus musculus, UniProt P47809); test: Kinase profile assay (Millipore); assay type: biochemical; settings: read-out: kinase activity compared with the control
T2 construct: purchased Millipore
Method: as §1

Aurora A [2] = molecular target: T3, Aurora A (Homo sapiens, UniProt O14965); test: Kinase profile assay (Millipore); assay type: biochemical
T3 construct: purchased Millipore
T3 sequence (O14965 1-403): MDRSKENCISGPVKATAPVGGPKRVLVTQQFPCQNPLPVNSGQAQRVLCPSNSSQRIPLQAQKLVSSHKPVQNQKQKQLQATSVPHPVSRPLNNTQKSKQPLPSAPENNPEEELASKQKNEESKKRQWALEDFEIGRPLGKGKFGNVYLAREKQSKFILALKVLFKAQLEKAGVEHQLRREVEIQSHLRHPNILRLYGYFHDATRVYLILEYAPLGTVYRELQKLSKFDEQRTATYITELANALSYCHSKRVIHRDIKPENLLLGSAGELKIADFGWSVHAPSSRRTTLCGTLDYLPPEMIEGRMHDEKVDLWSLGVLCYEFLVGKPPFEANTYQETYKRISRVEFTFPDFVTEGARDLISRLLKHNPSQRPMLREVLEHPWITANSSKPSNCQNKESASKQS
Method: as §1

MKK6 = molecular target: T4, MKK6 (Homo sapiens, UniProt P52564); test: Kinase profile assay (Millipore); assay type: biochemical; settings: read-out: kinase activity compared with the control
T4 construct: purchased Millipore
Method: as §1

PKB beta (Akt2) = molecular target: T5, PKB beta (Akt2) (Homo sapiens, UniProt P31751); test: Kinase profile assay (Millipore); assay type: biochemical
T5 construct: purchased Millipore
Method: as §1

c-Src = molecular target: T6, c-Src (Homo sapiens, UniProt P12931); test: Kinase profile assay (Millipore); assay type: biochemical; settings: read-out: kinase activity compared with the control
T6 construct: purchased Millipore
Method: as §1

Fyn = molecular target: T7, Fyn (Homo sapiens, UniProt P06241); test: Kinase profile assay (Millipore); assay type: biochemical; settings: read-out: kinase activity compared with the control
T7 construct: purchased Millipore
Method: as §1

CSK = molecular target: T8, CSK (Homo sapiens, UniProt P41240); test: Kinase profile assay (Millipore); assay type: biochemical; settings: 5 μM
T8 construct: purchased Millipore
Method: as §1

MKK7 beta = molecular target: T9, MKK7 beta (Homo sapiens, UniProt O14733); test: Kinase profile assay (Millipore); assay type: biochemical; settings: 5 μM
T9 construct: purchased Millipore
Method: as §1

Met = molecular target: T10, Met (Homo sapiens, UniProt P08581); test: Kinase profile assay (Millipore); assay type: biochemical; settings: 5 μM
T10 construct: purchased Millipore
Method: as §1

DYRK2 = molecular target: T11, DYRK2 (Homo sapiens, UniProt Q92630); test: Kinase profile assay (Millipore); assay type: biochemical; settings: read-out: kinase activity compared with the control
T11 construct: purchased Millipore
Method: as §1

LKB1 = molecular target: T12, LKB1 (Homo sapiens, UniProt Q15831); test: Kinase profile assay (Millipore); assay type: biochemical; settings: read-out: kinase activity compared with the control
T12 construct: purchased Millipore
Method: as §1

AMPK-alpha2 = molecular target: T13, AMPK-alpha2 (Homo sapiens, UniProt P54646); test: Kinase profile assay (Millipore); assay type: biochemical; settings: read-out: kinase activity compared with the control
T13 construct: purchased Millipore
Method: as §1

MEK1 = molecular target: T14, MEK1 (Homo sapiens, UniProt Q02750); test: Kinase profile assay (Millipore); assay type: biochemical; settings: read-out: kinase activity compared with the control
T14 construct: purchased Millipore
Method: as §1

A549 cells = test: Apoptosis (Annexin V/PI staining); assay type: cell-based, human; settings: A549, 5 μM, 72 hours
Method: (§2) Cells are plated in 60-mm plates and treated or not treated with Compound 1 for the indicated time. At each time point, cells are fixed in 70% ethanol and stored at −20° C. for 24 h. After staining, the cell cycle distribution or apoptosis is determined using a BD FACSCalibur Flow Cytometer (BD Biosciences, San Jose, Calif.). Aurora B inhibition leads to failure in cytokinesis and abnormal exit from mitosis, which could result in polyploidy cells, cell cycle arrest, and ultimately apoptosis. The ability to induce polyploidy cells was further examined in A549 cells treated or not treated with Compound 1. […] In addition, Compound 1 treatment for 48 hours caused an increase in the number of A549 and H520 cells occupying the G2/M phase. Moreover, exposure of these cells to Compound 1 for 72 hours induced apoptosis as measured by Annexin V/PI staining. For example, exposure to 5 μM Compound 1 induced 48% or 82% apoptosis in A549 cells and H520 cells, compared to 8% or 38% in untreated control cells, respectively.

H520 cells = test: Apoptosis (Annexin V/PI staining); assay type: cell-based, human; settings: H520, 5 μM, 72 hours
Method: as §2

Aurora A [3] = molecular target: T3, Aurora A; test: Aurora A in vitro kinase assay; assay type: biochemical; settings: 1 μM, compared with control
Method: Proteins are resolved by SDS-PAGE and transferred onto polyvinylidene difluoride membranes (Millipore, Mass.), which are blocked with nonfat milk and hybridized with specific primary antibodies. The protein bands are visualized using an enhanced chemiluminescence reagent (GE Healthcare, Pittsburgh, Pa.) after hybridization with a horseradish peroxidase-conjugated secondary antibody. […] Reactions are carried out in 1× kinase buffer (25 mM Tris-HCl pH 7.5, 5 mM beta-glycerophosphate, 2 mM dithiothreitol (DTT), 0.1 mM Na3VO4, 10 mM MgCl2 and 5 mM MnCl2) containing 100 μM ATP at 30° C. for 30 minutes. Reactions are stopped and proteins detected by Western blotting. An in vitro kinase assay was used to determine whether Compound 1 could inhibit Aurora B kinase activity using recombinant Aurora B protein and various concentrations of Compound 1. […] The effect of Compound 1 on Aurora A kinase activity using an in vitro kinase assay was also examined.

T5 sequence (P31751 whole entry, species assumed): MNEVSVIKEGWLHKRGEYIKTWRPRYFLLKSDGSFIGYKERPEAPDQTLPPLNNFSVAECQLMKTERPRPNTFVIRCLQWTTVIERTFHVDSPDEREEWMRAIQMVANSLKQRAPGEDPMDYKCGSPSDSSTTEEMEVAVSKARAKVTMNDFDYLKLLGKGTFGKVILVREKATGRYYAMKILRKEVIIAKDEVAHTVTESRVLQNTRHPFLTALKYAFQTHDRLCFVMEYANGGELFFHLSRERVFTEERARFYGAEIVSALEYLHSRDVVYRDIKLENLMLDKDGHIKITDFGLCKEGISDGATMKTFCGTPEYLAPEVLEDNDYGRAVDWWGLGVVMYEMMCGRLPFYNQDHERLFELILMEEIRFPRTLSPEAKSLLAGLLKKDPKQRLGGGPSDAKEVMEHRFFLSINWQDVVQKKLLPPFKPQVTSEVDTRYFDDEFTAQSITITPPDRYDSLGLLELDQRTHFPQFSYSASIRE
T7 sequence (P06241 whole entry, species assumed): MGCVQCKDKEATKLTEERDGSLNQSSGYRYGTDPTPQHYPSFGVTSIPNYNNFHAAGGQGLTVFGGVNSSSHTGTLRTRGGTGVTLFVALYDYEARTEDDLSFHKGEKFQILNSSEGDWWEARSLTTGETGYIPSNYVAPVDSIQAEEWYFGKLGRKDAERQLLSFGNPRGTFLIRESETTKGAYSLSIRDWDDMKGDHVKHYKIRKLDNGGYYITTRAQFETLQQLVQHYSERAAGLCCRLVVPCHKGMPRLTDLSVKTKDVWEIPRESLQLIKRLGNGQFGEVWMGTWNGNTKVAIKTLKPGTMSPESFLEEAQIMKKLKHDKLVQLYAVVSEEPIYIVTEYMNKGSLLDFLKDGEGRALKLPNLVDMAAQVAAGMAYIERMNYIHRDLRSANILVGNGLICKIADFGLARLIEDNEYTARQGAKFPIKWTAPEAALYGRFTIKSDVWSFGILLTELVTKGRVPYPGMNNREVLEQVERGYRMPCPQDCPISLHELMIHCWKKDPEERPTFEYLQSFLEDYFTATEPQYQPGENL
T2 sequence (P47809 whole entry): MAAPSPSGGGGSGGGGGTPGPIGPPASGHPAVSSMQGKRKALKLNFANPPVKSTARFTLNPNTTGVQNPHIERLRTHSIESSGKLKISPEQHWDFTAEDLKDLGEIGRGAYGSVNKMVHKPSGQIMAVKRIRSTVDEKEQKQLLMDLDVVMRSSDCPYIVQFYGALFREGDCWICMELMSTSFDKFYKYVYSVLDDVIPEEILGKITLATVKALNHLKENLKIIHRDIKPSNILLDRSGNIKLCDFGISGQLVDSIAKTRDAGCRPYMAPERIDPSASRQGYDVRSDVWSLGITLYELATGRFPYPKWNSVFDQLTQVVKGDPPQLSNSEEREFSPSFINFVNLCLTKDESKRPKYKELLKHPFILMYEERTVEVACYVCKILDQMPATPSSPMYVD
T14 sequence (Q02750 whole entry, species assumed): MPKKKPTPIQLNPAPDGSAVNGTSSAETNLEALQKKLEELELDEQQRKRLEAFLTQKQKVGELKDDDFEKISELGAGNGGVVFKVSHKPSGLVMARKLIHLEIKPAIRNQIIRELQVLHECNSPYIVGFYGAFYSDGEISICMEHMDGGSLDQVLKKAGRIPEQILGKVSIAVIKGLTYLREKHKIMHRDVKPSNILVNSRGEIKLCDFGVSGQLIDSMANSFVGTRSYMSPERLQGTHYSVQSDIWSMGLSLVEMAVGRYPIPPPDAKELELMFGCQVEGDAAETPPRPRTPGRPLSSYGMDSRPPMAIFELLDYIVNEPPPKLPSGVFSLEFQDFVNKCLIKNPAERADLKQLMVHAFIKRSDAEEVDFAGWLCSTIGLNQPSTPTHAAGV
T12 sequence (Q15831 whole entry, species assumed): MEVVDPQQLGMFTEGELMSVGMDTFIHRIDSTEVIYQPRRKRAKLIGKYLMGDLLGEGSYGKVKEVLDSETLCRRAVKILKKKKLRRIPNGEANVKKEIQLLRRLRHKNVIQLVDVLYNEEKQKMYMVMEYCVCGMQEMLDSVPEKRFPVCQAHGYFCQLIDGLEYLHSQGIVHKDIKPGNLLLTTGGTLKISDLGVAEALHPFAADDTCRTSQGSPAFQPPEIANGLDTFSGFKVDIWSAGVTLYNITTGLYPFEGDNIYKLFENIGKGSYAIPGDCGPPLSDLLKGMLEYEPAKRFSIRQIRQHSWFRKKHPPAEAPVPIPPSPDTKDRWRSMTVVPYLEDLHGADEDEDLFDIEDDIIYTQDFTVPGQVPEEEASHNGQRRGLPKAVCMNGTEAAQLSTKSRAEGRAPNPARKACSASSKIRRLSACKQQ
T12 sequence (Q7RTN6 whole entry partner, species assumed): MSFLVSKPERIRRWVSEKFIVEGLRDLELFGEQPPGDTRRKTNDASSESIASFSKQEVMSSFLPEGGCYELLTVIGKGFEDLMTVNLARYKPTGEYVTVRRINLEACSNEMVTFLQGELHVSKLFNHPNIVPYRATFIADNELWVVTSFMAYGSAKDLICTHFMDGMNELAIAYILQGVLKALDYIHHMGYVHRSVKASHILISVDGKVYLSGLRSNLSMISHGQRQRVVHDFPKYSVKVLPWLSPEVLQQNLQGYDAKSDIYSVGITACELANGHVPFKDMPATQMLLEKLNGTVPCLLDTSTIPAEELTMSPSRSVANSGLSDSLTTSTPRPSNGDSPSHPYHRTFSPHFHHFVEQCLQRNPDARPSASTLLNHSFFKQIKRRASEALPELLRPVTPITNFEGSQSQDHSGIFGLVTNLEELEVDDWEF
T12 sequence (Q9Y376 whole entry partner, species assumed): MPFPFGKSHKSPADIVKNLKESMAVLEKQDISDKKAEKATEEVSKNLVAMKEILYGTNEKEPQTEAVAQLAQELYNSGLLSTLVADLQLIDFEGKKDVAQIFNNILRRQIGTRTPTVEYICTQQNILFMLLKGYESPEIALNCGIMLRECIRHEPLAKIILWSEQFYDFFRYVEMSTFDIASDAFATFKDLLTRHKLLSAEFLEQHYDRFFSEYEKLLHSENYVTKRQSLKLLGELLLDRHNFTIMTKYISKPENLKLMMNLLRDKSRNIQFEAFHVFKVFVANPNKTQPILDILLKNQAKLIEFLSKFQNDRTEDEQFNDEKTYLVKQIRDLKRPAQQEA
T4 sequence (P52564 whole entry, species assumed): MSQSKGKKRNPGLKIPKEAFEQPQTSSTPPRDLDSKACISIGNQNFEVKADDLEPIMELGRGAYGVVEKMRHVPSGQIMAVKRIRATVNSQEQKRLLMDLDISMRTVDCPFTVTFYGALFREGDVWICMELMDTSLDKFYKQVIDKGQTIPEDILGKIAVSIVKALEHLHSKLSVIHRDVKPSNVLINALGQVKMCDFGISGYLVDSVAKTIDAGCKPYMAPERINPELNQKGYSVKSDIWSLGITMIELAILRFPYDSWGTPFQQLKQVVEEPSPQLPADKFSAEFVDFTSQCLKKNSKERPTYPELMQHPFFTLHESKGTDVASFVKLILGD
T8 sequence (P41240 whole entry, species assumed): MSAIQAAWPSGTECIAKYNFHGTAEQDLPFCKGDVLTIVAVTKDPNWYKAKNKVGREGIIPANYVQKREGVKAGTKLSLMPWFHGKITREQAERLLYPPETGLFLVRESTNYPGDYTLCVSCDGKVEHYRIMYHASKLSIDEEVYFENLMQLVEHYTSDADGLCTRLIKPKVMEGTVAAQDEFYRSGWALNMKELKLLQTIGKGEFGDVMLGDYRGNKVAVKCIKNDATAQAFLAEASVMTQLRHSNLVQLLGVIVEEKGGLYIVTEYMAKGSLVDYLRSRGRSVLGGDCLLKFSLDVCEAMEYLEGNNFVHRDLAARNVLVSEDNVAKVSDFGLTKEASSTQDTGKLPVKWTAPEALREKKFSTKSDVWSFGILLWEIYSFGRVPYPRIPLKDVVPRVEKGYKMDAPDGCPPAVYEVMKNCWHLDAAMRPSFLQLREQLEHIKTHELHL
T11 sequence (Q92630 whole entry, species assumed): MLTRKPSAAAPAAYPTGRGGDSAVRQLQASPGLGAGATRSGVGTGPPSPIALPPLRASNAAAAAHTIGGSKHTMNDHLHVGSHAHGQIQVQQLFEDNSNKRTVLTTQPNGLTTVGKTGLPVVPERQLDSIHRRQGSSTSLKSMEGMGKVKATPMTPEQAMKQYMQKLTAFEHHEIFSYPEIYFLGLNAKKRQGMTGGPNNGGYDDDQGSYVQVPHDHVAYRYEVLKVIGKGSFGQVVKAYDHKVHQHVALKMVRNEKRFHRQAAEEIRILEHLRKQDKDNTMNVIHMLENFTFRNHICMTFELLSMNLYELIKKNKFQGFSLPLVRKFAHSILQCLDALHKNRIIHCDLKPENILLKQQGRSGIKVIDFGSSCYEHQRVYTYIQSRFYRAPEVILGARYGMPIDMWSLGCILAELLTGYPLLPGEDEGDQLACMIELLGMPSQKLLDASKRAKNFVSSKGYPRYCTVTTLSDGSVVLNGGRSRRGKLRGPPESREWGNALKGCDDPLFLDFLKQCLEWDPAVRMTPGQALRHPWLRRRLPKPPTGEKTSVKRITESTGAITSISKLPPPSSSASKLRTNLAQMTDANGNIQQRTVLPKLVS
T6 sequence (P12931 whole entry, species assumed): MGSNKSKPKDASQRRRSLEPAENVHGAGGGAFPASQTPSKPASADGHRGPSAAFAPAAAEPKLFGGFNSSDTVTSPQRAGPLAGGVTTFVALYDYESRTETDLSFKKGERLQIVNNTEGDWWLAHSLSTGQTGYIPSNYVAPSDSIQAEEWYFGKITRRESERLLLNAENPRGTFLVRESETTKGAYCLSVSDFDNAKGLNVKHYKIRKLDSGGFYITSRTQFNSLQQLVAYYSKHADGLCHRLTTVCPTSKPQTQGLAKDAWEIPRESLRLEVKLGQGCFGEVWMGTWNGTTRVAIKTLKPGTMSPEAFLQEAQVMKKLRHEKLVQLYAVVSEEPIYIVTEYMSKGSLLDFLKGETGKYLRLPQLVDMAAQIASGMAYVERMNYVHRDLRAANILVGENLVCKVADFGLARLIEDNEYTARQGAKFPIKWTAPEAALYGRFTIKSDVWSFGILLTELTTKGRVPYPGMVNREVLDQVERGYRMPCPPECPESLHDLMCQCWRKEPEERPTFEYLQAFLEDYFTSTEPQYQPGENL

SMILES: O=C(/C=C/c1ccc2c(c1)OCO2)/C=C1/C(=O)Nc2ccccc21 [Compound 1]
- final tumor volume (mean±S.E.) ([1]; Day 13 to Day 80, vehicle 1004±140.1, in mm³ (unit assumed)): 403.2±50.0
- toxicity in mice ([1]; ~9 wks): No toxicity
- remaining activity at 5 µM (IGF-1R): 105%
- remaining activity at 5 µM (MKK4): 130%
- kinase activity of Aurora A decreased (kinase profile) (Aurora A [2]; 5 μM): less than 25%
- remaining activity at 5 µM (Aurora A [2]; Aurora A, read-out: kinase activity compared with the control): 76%
- remaining activity at 5 µM (MKK6): 129%
- Akt2 activity suppressed compared with the control (kinase profile) (PKB beta (Akt2); 5 μM): more than 50%
- remaining activity at 5 µM (PKB beta (Akt2); PKB beta (Akt2), read-out: kinase activity compared with the control): 47%
- remaining activity at 5 µM (c-Src): 99%
- remaining activity at 5 µM (Fyn): 99%
- kinase activity compared with the control (CSK): 110
- kinase activity compared with the control (MKK7 beta): 94
- kinase activity compared with the control (Met): 89
- remaining activity at 5 µM (DYRK2): 97%
- remaining activity at 5 µM (LKB1): 87%
- remaining activity at 5 µM (AMPK-alpha2): 90%
- remaining activity at 5 µM (MEK1): 104%
- apoptosis (Annexin V/PI staining) (A549 cells): 48%
- apoptosis (Annexin V/PI staining) (H520 cells): 82%
- effect on histone H3 (Ser10) phosphorylation by Aurora A (Aurora A [3]): No effect
